Tests used:
Experiment in all cases: weeding effect in post-emergence stage
Format in all cases: in vivo
Rorippa indica = system: Rorippa indica
Text: (§1) The activity level criteria for plant damage (i.e., growth control rate) are as follows: • Level 5: growth control rate is above 85%; • Level 4: growth control rate is greater than or equal to 60% and less than 85%; • Level 3: growth control rate is greater than or equal to 40% and less than 60%; • Level 2: growth control rate is greater than or equal to 20% and less than 40%; • Level 1: growth control rate is greater than or equal to 5% and less than 20%; • Level 0: growth control rate is less than 5%.
(§2) The above growth control rates are fresh weight control rates.
(§3) Experiment on weeding effect in post-emergence stage:
(§4) Monocotyledonous and dicotyledonous weed seeds (Descurainia sophia, Capsella bursa-pastoris, Abutilon theophrasti, Galium aparine, Stellaria media, Lithospermum arvense, Rorippa indica, Alopecurus aequalis, Alopecurus japonicus, Beckmannia syzigachne, Sclerochloa dura, Conyza Canadensis, Phleum paniculatum, Veronica didyma Tenore, Bromus japonicus, Aegilops tauschii, Phalaris arundinacea, Amaranthus retroflexus, Chenopodium album, Commelina communis, Sonchus arvensis, Convolvulus arvensis, Cirsium setosum, Solanum nigrum, Acalypha australis, Digitaria sanguinalis, Echinochloa crusgalli, Setaria viridis, Setaria glauca, Leptochloa chinensis, Monochoria vaginalis, Sagittaria trifolia, Scirpus juncoides, Cyperus rotundus, Cyperus iria, Cyperus difformis, Fimbristylis, Portulaca oleracea, Xanthium sibiricum, Pharbitis nil, Conyza japonica, etc.) and major crop seeds (wheat, corn, rice, soybean, cotton, oilseed rape, millet, sorghum, potato, sesame, ricinus, etc.) were placed in plastic pots filled with soil, then covered with 0.5-2 cm of soil, allowed to grow in a good greenhouse environment. After 2 weeks of sowing, the test plants were treated in the 2-3 leaf stage. The tested compounds of the present invention were respectively dissolved in acetone, then added with Tween 80 and 1.5 liter/ha of emulsifiable concentrate of methyl oleate as synergist, diluted with a certain amount of water to obtain a solution with a certain concentration, and sprayed with a spray tower onto the plants. After the application, the plants were cultured for 3 weeks in the greenhouse, and then the experimental results of the weeding were counted. The doses of the used compounds were 500, 250, 125, 60, 15, 7.5 g a.i./ha, and the averages were obtained by repeating for three times.

Alopecurus japonicus = system: Alopecurus japonicus
Text: as §1, §2, §3, §4

Beckmannia syzigachne = system: Beckmannia syzigachne
Text: as §1, §2, §3, §4

Conyza japonica = system: Conyza japonica
Text: as §1, §2, §3, §4

Row | SMILES | weeding effect in post-emergence stage, Rorippa indica (activity level) (Rorippa indica; dose 125 g a.i./ha) | weeding effect in post-emergence stage, Alopecurus japonicus (activity level) (Alopecurus japonicus; dose 125 g a.i./ha) | weeding effect in post-emergence stage, Beckmannia syzigachne (activity level) (Beckmannia syzigachne; dose 125 g a.i./ha) | weeding effect in post-emergence stage, Conyza japonica (activity level) (Conyza japonica; dose 125 g a.i./ha) | weeding effect in post-emergence stage, Rorippa indica (activity level) (Rorippa indica; dose 15 g a.i./ha) | weeding effect in post-emergence stage, Alopecurus japonicus (activity level) (Alopecurus japonicus; dose 15 g a.i./ha) | weeding effect in post-emergence stage, Beckmannia syzigachne (activity level) (Beckmannia syzigachne; dose 15 g a.i./ha) | weeding effect in post-emergence stage, Conyza japonica (activity level) (Conyza japonica; dose 15 g a.i./ha)
1 | CCOC(=O)COC(C)C1(C(=O)OCC)CC(c2cc(-n3c(=O)n(C)c(=S)n(C)c3=O)c(F)cc2Cl)=NO1 (mixture of isomers) [Compound 55] | 5 (Level 5: growth control rate is above 85%) | 5 (Level 5: growth control rate is above 85%) | 5 (Level 5: growth control rate is above 85%) | 5 (Level 5: growth control rate is above 85%) |  |  |  | 
2 | CCOC(=O)C1(CC)CC(c2cc(-n3c(=O)n(C)c(=S)n(C)c3=O)c(F)cc2Cl)=NO1 (racemic) [Compound 3] | 5 (Level 5: growth control rate is above 85%) | 5 (Level 5: growth control rate is above 85%) | 5 (Level 5: growth control rate is above 85%) | 5 (Level 5: growth control rate is above 85%) | 5 (Level 5: growth control rate is above 85%) | 5 (Level 5: growth control rate is above 85%) | 5 (Level 5: growth control rate is above 85%) | 5 (Level 5: growth control rate is above 85%)
3 | CCCC1(C(=O)OCC)CC(c2cc(-n3c(=O)n(C)c(=S)n(C)c3=O)c(F)cc2Cl)=NO1 (racemic) [Compound 4] | 5 (Level 5: growth control rate is above 85%) | 5 (Level 5: growth control rate is above 85%) | 5 (Level 5: growth control rate is above 85%) | 5 (Level 5: growth control rate is above 85%) | 5 (Level 5: growth control rate is above 85%) | 5 (Level 5: growth control rate is above 85%) | 4 (Level 4: growth control rate is greater than or equal to 60% and less than 85%) | 4 (Level 4: growth control rate is greater than or equal to 60% and less than 85%)
4 | CCOC(=O)C1(C(C)C)CC(c2cc(-n3c(=O)n(C)c(=S)n(C)c3=O)c(F)cc2Cl)=NO1 (racemic) [Compound 5] | 5 (Level 5: growth control rate is above 85%) | 5 (Level 5: growth control rate is above 85%) | 5 (Level 5: growth control rate is above 85%) | 5 (Level 5: growth control rate is above 85%) | 5 (Level 5: growth control rate is above 85%) | 5 (Level 5: growth control rate is above 85%) | 4 (Level 4: growth control rate is greater than or equal to 60% and less than 85%) | 4 (Level 4: growth control rate is greater than or equal to 60% and less than 85%)
